Series [1] is described as follows: Inhibition of trypsin like 20S proteasome activity in lymphoblastoid cells. In kind it is cell-based.
Series [2] in a line: Inhibition of chymotrypsin like 20S proteasome activity in lymphoblastoid cells. In kind it is cell-based.
The nature of series [3]: Inhibition of caspase like 20S proteasome activity in lymphoblastoid cells. It is filed as cell-based.
A short description of series [4]: In vivo inhibition of trypsin like 20S proteasome. In kind it is organism-based.
Series [5] in a line: In vivo inhibition of chymotrypsin like 20S proteasome. In kind it is organism-based.
Series [6] can be described thus: In vivo inhibition of caspase like 20S proteasome. It is filed as organism-based.
A short description of series [7]: Half life in human plasma after 360 mins. In kind it is ADME, cell-free.

Drawing on ChEMBL document CHEMBL1156699, “C-terminal constrained phenylalanine as a pharmacophoric unit in peptide-based proteasome inhibitors” (Eur J Med Chem, 2008), this text covers IC50 and half-life for 15 compounds.

The structures appear in SMILES notation. Residues, ends and D or L forms follow the SMILES beside them. *: point of attachment. Cbz = O=C(OCc1ccccc1)*

Broadly, the IC50 is the concentration that inhibits the measured activity by half. The low end stands for higher potency, the high end for lower potency. For orientation: half-life means the time needed for the level to fall by half in the phase considered. The low end stands for rapid decline, the high end for slow decline. Turning to `CCOC(=O)/C(=C/c1ccccc1)NC(=O)[C@H](CC(C)C)NC(=O)[C@H](CC(C)C)NC(=O)c1cccc(O)c1C`, the IC50 in series [1] was 1760 nM; in series [2], 1190 nM; in series [3] it was > 10000 nM; in series [4], 2180 nM; in series [5], 1550 nM; in series [6] it was > 10000 nM. Moreover, the half-life in series [7] is > 6 h.

With `CCOC(=O)/C=C/[C@H]1Cc2ccccc2CN1C(=O)[C@H](CC(C)C)NC(=O)[C@H](CO)NC(=O)[C@@H](NC(=O)c1cccc(O)c1C)C(C)C`, the IC50 was 7950 nM in series [1], > 10000 nM in series [2] and 2350 nM in series [3].

With `CCOC(=O)/C=C/[C@@H]1Cc2ccccc2CN1C(=O)[C@H](CC(C)C)NC(=O)[C@H](CO)NC(=O)[C@@H](NC(=O)c1cccc(O)c1C)C(C)C`, the IC50 in series [1] was > 10000 nM; in series [2], > 10000 nM; in series [3], 2500 nM.

On to `CCOC(=O)/C=C/[C@H]1Cc2ccccc2CN1C(=O)[C@H](CC(C)C)NC(=O)[C@H](CC(C)C)NC(=O)c1cccc(O)c1C`, for which the IC50 in series [1] was > 10000 nM; in series [2], 3730 nM; in series [3], 1480 nM; in series [6], 2050 nM. The half-life in series [7] is > 6 h.

As for `CCOC(=O)/C=C/[C@@H]1Cc2ccccc2CN1C(=O)[C@H](CO)NC(=O)[C@@H](NC(=O)c1cccc(O)c1C)C(C)C`, the results for the concentration for half-maximal inhibition (IC50) in series [1], in series [2] and in series [3] were 2790 nM, > 10000 nM and 3920 nM, respectively.

Regarding `CCOC(=O)/C=C/[C@@H]1Cc2ccccc2CN1C(=O)[C@H](CC(C)C)NC(=O)[C@H](CC(C)C)NC(=O)[C@H](CC(C)C)NC(=O)c1cccc(O)c1C`, the IC50 was > 10000 nM in series [1], 5300 nM in series [2] and 1730 nM in series [3].

As for `CC[C@H](C)[C@H](NC(=O)[C@H]([C@@H](C)CC)N(C)C(C)=O)C(=O)N[C@H](C(=O)N[C@@H](CC(C)C)C(=O)[C@@]1(C)CO1)[C@@H](C)O` [EPOXOMYCIN], the IC50 in series [2] was found to be 5 nM.

For `CCOC(=O)/C=C/[C@H](CC(C)C)NC(=O)[C@H](CO)NC(=O)[C@@H](NC(=O)c1cccc(O)c1C)C(C)C`, the IC50 was 33 nM in series [1]; > 10000 nM in series [2]; > 10000 nM in series [3]; 50 nM in series [4]; > 10000 nM in series [5]; > 10000 nM in series [6]. In series [7], the half-life was > 6 h.

For the compound `CCOC(=O)/C(=C/c1ccccc1)NC(=O)[C@H](CC(C)C)NC(=O)[C@H](CO)NC(=O)[C@@H](NC(=O)c1cccc(O)c1C)C(C)C`, the IC50 is 79 nM in series [1]; > 10000 nM in series [2]; > 10000 nM in series [3]; 92 nM in series [4]; > 10000 nM in series [5]; > 10000 nM in series [6]. In series [7], the half-life is > 6 h.

As to `CCOC(=O)/C(=C/c1ccccc1)NC(=O)[C@H](CC(C)C)NC(=O)[C@H](CC(C)C)NC(=O)[C@H](CC(C)C)NC(=O)c1cccc(O)c1C`, the IC50 in series [1] was 1320 nM; in series [2] it was 894 nM; in series [3] it was > 10000 nM; in series [4], 1820 nM; in series [5], 1040 nM; in series [6], > 10000 nM. For the same compound, in series [7], the half-life was > 6 h.

Consider `CCOC(=O)/C=C/[C@H]1Cc2ccccc2CN1C(=O)[C@H](CC(C)C)NC(=O)[C@H](CC(C)C)NC(=O)[C@H](CC(C)C)NC(=O)c1cccc(O)c1C`, for which the IC50 is > 10000 nM in series [1], 8450 nM in series [2], 952 nM in series [3] and 1410 nM in series [6]. Also, the half-life in series [7] is > 6 h.

Turning to `CCOC(=O)/C=C/[C@H]1Cc2ccccc2CN1C(=O)[C@H](CO)NC(=O)[C@@H](NC(=O)c1cccc(O)c1C)C(C)C`, the figures for the half-inhibitory concentration (IC50) in series [1], in series [2] and in series [3] were 3670 nM, > 10000 nM and 2960 nM, respectively.

On to `CC(C)C[C@@H](C=O)NC(=O)[C@H](CC(C)C)NC(=O)[C@H](CC(C)C)NC(=O)OCc1ccccc1` [MG-132] (Cbz-Leu-Leu-Leu-aldehyde), for which the results for the IC50 in series [1], in series [2] and in series [3] were 1080 nM, 2 nM and > 10000 nM, respectively.

On to `CCOC(=O)/C=C/[C@@H]1Cc2ccccc2CN1C(=O)[C@H](CC(C)C)NC(=O)[C@H](CC(C)C)NC(=O)c1cccc(O)c1C`, for which the IC50 came out at 5840 nM in series [1], 2060 nM in series [2] and 2140 nM in series [3].

Take `CCOC(=O)/C(=C/c1ccccc1)NC(=O)[C@H](CO)NC(=O)[C@@H](NC(=O)c1cccc(O)c1C)C(C)C`: the half-inhibitory concentration (IC50) was 183 nM in series [1]; > 10000 nM in series [2]; > 10000 nM in series [3]; 231 nM in series [4]; > 10000 nM in series [5]; > 10000 nM in series [6]. Also, the half-life in series [7] is > 6 h.
